Experimental findings from ChEMBL document CHEMBL1154308, “Carteriosulfonic acids A-C, GSK-3beta inhibitors from a Carteriospongia sp” (J Nat Prod, 2009) are described below.

The term IC50 denotes the midpoint of a concentration-inhibition curve.

The species named for assay [1] is Oryctolagus cuniculus. Briefly: Inhibition of rabbit GSKbeta assessed as [32P]-phosphorylation of substrate up to 50 uM after 1 hr by scintillation counting.
Assay [2] is described as follows: Inhibition of rabbit GSKbeta assessed as [32P]-phosphorylation of substrate after 1 hr by scintillation counting. The arrangement: species or system Oryctolagus cuniculus.

Activity calls are given as the source filed them. No cut-off for these calls is given here.

For the compound `CC(O)C[C@H](O)[C@H](O)C[C@H](O)CCC(=O)NCCS(=O)(=O)O` (some centres undefined), in assay [1], the inhibition result is “inactive”. Take `CCCCC/C=C/C(O)CCCCC/C=C/C(O)CCCCCCCC(=O)OC(C)C[C@H](O)[C@H](O)C[C@H](O)CCC(=O)NCCS(=O)(=O)O` (mixture of isomers) [CARTERIOSULFONIC ACID A]: the IC50 in assay [2] worked out at 12.5 µM.

As for `CCCCC/C=C/C(O)CCCCCCCCCCCCCC(=O)OC(C)C[C@H](O)[C@H](O)C[C@H](O)CCC(=O)NCCS(=O)(=O)O` (mixture of isomers) [CARTERIOSULFONIC ACID C], the IC50 in assay [2] amounted to 6.8 µM.

Turning to `CCCCC/C=C/C(O)CCCCC/C=C/C(CCCCCCCC(=O)OC(C)C[C@H](O)[C@H](O)C[C@H](O)CCC(=O)NCCS(=O)(=O)O)OC(C)=O` (some centres undefined) [CARTERIOSULFONIC ACID B], the IC50 in assay [2] was 6.8 µM.
